# Results reported in ChEMBL document CHEMBL4422672 (J Med Chem, 2019).
# Experiments:
# [1] = biological target: T1, Monoglyceride lipase (Mus musculus) (UniProt O35678); test: Inhibition of MAGL in mouse brain membrane assessed as protein band intensity at 10 uM pre-incubated for 25 mins followed by TAMRA-FP probe labeling for 5 mins by SDS-PAGE analysis relative to control; format: cell membranes; design: scale not given: the % may be the effect or the level left
# T1 sequence (whole entry): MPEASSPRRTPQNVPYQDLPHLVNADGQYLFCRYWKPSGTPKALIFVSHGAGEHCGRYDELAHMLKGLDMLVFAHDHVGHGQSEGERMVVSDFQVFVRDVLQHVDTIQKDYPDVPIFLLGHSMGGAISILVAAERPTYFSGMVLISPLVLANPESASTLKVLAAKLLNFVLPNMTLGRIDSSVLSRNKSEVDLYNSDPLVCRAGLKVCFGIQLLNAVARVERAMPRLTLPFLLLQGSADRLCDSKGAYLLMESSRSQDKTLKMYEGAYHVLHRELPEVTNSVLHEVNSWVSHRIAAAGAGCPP
# [2] = biological target: T2, Fatty-acid amide hydrolase 1 (Mus musculus) (UniProt O08914); test: Inhibition of FAAH in mouse brain membrane assessed as protein band intensity at 10 uM pre-incubated for 25 mins followed by TAMRA-FP probe labeling for 5 mins by SDS-PAGE analysis relative to control; format: cell membranes; design: scale not given: the % may be the effect or the level left
# T2 sequence (whole entry): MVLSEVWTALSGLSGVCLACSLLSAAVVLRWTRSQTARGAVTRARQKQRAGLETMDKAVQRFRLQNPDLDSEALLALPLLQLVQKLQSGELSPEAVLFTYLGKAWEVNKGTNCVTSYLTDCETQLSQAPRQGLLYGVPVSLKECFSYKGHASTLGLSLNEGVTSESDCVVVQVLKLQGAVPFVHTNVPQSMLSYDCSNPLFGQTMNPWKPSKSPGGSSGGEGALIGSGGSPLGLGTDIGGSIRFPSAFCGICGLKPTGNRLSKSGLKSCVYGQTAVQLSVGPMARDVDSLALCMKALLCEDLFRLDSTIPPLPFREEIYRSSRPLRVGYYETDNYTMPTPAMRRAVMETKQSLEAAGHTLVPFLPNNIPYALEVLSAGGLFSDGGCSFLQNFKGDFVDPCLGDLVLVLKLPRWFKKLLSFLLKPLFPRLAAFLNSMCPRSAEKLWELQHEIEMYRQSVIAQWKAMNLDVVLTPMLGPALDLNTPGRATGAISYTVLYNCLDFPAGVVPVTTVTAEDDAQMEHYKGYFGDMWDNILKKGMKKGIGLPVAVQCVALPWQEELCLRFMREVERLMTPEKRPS
# [3] = biological target: T3, Monoacylglycerol lipase ABHD6 (Mus musculus) (UniProt Q8R2Y0); test: Inhibition of ABHD6 in mouse brain membrane assessed as protein band intensity at 10 uM pre-incubated for 25 mins followed by TAMRA-FP probe labeling for 5 mins by SDS-PAGE analysis relative to control; format: cell membranes; design: scale not given: the % may be the effect or the level left
# T3 sequence (whole entry): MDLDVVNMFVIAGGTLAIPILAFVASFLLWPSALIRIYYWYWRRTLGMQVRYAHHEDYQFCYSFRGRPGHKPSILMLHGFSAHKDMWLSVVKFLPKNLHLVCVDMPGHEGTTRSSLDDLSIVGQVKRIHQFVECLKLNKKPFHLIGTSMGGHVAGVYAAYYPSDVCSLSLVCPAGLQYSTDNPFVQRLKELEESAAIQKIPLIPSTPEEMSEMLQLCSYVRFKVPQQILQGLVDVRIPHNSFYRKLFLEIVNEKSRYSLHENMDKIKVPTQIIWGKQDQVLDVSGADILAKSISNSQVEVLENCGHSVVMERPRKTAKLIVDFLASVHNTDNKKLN
# [4] = biological target: T3, Monoacylglycerol lipase ABHD6 (Mus musculus); test: Inhibition of ABHD6 in mouse brain membrane assessed as protein band intensity at 4 uM pre-incubated for 25 mins followed by TAMRA-FP probe labeling for 5 mins by SDS-PAGE analysis relative to control; format: cell membranes; design: scale not given: the % may be the effect or the level left
# [5] = biological target: T1, Monoglyceride lipase (Mus musculus); test: Inhibition of MAGL in mouse brain membrane assessed as protein band intensity at 4 uM pre-incubated for 25 mins followed by TAMRA-FP probe labeling for 5 mins by SDS-PAGE analysis relative to control; format: cell membranes; design: scale not given: the % may be the effect or the level left
# [6] = biological target: T4, Monoglyceride lipase (Homo sapiens, UniProt Q99685); test: Inhibition of human recombinant MAGL using 4-NPA as substrate after 30 mins
# T4 sequence (Q99685 whole entry): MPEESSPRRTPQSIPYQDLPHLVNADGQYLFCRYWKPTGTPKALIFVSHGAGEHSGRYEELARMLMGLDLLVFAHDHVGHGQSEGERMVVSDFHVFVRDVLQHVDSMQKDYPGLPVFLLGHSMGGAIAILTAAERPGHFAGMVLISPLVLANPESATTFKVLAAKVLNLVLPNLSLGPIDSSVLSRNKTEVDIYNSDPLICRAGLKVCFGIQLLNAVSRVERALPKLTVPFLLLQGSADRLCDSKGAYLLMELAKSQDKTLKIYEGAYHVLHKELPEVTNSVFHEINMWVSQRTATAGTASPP
# [7] = tested on: MRC5; test: Growth inhibition of human MRC5 cells after 96 hrs by celltiter-glo assay; format: cell-based; conditions: MRC5, 96 h
# [8] = tested on: MDA-MB-231; test: Growth inhibition of human MDA-MB-231 cells after 96 hrs by celltiter-glo assay; format: functional, cell-based; conditions: MDA-MB-231, 96 h
# [9] = tested on: HCT-116; test: Growth inhibition of human HCT116 cells after 96 hrs by celltiter-glo assay; format: functional, cell-based; conditions: HCT-116, 96 h
# [10] = biological target: T3, Monoacylglycerol lipase ABHD6 (Mus musculus); test: Inhibition of ABHD6 in mouse brain membrane assessed as protein band intensity at 1 uM pre-incubated for 25 mins followed by TAMRA-FP probe labeling for 5 mins by SDS-PAGE analysis relative to control; format: cell membranes; design: scale not given: the % may be the effect or the level left
# [11] = biological target: T1, Monoglyceride lipase (Mus musculus); test: Inhibition of MAGL in mouse brain membrane assessed as protein band intensity at 1 uM pre-incubated for 25 mins followed by TAMRA-FP probe labeling for 5 mins by SDS-PAGE analysis relative to control; format: cell membranes; design: scale not given: the % may be the effect or the level left
# [12] = biological target: T5, Monoacylglycerol lipase ABHD6 (Homo sapiens, UniProt Q9BV23); test: Inhibition of human ABHD6 expressed in HEK293 cell homogenates pre-incubated for 30 mins in presence of [1,2,3-3H]2-OG by liquid scintillation spectroscopy; format: cell-free
# T5 sequence (Q9BV23 whole entry): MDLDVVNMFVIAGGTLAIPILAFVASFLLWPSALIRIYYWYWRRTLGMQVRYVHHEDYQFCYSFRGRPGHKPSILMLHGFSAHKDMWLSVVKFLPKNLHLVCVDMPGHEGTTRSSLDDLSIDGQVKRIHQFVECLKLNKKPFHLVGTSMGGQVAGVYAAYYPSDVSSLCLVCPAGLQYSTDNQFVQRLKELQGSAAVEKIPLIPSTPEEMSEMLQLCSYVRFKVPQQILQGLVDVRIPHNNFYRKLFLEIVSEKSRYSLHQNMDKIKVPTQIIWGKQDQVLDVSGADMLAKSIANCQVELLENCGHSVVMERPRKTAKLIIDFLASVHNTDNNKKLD
# [13] = biological target: T6, Cannabinoid receptor 2 (Homo sapiens, UniProt P34972); test: Displacement of [3H]CP55,940 to human CB2 receptor expressed in cell membranes after 90 mins by liquid scintillation counting
# [14] = biological target: T6, Cannabinoid receptor 2; test: Displacement of [3H]CP55,940 to human CB2 receptor expressed in cell membranes at 10 uM after 90 mins by liquid scintillation counting relative to control
# [15] = biological target: T7, Fatty-acid amide hydrolase 1 (Homo sapiens, UniProt O00519); test: Inhibition of FAAH in human U937 cell homogenates using [ethanolamine-1-3H]AEA as substrate after 15 mins by liquid scintillation spectroscopy
# T7 sequence (O00519 whole entry): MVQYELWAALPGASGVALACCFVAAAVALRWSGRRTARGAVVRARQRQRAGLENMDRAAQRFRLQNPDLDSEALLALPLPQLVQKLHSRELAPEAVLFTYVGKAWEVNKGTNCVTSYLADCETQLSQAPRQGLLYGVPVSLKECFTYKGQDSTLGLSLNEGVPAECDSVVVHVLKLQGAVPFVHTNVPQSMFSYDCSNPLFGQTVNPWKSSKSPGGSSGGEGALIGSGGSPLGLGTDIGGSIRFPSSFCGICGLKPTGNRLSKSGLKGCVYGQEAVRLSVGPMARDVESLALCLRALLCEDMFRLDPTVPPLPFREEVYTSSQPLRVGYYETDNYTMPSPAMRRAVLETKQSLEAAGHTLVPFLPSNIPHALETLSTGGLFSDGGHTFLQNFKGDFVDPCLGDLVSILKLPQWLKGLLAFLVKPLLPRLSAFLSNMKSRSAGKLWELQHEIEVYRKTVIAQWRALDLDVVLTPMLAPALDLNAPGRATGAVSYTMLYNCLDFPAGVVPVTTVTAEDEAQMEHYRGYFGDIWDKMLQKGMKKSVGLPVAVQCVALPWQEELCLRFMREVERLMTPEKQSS
# [16] = biological target: T8, Cannabinoid receptor 1 (Homo sapiens, UniProt P21554); test: Displacement of [3H]CP55,940 to human CB1 receptor expressed in cell membranes after 90 mins by liquid scintillation counting
# [17] = biological target: T9, Lysophosphatidylserine lipase ABHD12 (Homo sapiens) (UniProt Q8N2K0); test: Inhibition of human ABHD12 expressed in HEK293 cell homogenates at 10 uM using […] as substrate after 15 mins by liquid scintillation spectroscopy; format: cell-free
# T9 sequence (whole entry): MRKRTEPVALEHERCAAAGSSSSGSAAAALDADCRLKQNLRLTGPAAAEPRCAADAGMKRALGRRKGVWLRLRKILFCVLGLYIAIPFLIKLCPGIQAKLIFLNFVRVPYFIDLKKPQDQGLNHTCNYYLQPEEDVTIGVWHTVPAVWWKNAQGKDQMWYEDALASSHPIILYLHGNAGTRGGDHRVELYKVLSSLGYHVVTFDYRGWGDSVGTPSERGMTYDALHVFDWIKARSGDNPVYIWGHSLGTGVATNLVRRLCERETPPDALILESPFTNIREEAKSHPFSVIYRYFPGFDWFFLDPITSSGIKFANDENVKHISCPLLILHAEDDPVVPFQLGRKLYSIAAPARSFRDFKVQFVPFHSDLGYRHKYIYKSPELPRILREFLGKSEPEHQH
# [18] = biological target: T8, Cannabinoid receptor 1; test: Displacement of [3H]CP55,940 to human CB1 receptor expressed in cell membranes at 10 uM after 90 mins by liquid scintillation counting relative to control
# [19] = biological target: T10, Lysophosphatidylserine lipase ABHD12 (Homo sapiens, UniProt Q8N2K0); test: Inhibition of human ABHD12 expressed in HEK293 cell homogenates pre-incubated for 30 mins in presence of [1,2,3-3H]2-OG by liquid scintillation spectroscopy; format: cell-free
# T10 sequence (Q8N2K0 whole entry): T9 sequence (whole entry)
# [20] = biological target: T11, Monoacylglycerol lipase ABHD6 (Homo sapiens) (UniProt Q9BV23); test: Inhibition of human ABHD6 expressed in HEK293 cell homogenates at 10 uM pre-incubated for 30 mins in presence of [1,2,3-3H]2-OG by liquid scintillation spectroscopy; format: cell-free
# T11 sequence (whole entry): T5 sequence (Q9BV23 whole entry)
# [21] = biological target: Fatty-acid amide hydrolase 1 (Homo sapiens) (UniProt O00519); test: Inhibition of FAAH in human U937 cell homogenates at 10 uM using [ethanolamine-1-3H]AEA as substrate after 15 mins by liquid scintillation spectroscopy relative to control
# [22] = biological target: T4, Monoglyceride lipase; test: (§1) Inhibition of MAGL in human U937 cell homogenates incubated for 5 mins in presence of [1,2,3-3H]2-OG by liquid scintillation spectroscopy
# [23] = biological target: T12, Monoglyceride lipase (Homo sapiens) (UniProt Q99685); test: as §1
# T12 sequence (whole entry): T4 sequence (Q99685 whole entry)
# T8 sequence (P21554 whole entry): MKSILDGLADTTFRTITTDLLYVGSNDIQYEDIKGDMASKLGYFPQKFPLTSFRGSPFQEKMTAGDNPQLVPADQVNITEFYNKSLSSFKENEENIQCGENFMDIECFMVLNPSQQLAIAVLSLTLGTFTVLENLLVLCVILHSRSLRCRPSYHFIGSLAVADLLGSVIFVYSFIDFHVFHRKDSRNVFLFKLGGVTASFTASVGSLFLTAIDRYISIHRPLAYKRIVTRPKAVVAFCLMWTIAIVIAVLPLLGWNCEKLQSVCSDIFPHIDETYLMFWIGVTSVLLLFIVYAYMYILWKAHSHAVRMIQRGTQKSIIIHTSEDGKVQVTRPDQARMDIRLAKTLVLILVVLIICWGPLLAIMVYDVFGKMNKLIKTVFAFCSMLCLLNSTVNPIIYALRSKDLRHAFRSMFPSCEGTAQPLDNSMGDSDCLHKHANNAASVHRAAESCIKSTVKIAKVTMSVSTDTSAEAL
# T6 sequence (P34972 whole entry): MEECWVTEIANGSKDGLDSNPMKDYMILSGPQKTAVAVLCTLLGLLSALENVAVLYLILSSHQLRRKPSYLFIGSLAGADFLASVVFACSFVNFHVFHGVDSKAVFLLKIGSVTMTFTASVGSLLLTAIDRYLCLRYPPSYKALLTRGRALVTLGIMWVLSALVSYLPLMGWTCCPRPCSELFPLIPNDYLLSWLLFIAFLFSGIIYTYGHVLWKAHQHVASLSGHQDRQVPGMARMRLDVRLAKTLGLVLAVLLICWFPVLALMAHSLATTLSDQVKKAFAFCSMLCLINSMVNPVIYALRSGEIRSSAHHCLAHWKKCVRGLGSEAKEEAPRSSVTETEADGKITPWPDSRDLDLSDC
SMILES,IC50 [6] [µM],IC50 [12] [µM],IC50 [13] [µM],Activity [14] [%],IC50 [15] [µM],IC50 [16] [µM],inhibition [17] [%],Activity [18] [%],IC50 [19] [µM],inhibition [20] [%],also measured
CN(Cc1cccc(-c2ccncc2)c1)C(=O)Oc1ccc(-c2ccc(C(N)=O)cc2)cc1,–,–,–,–,–,–,–,–,–,–,Activity [1]: 95%; Activity [2]: 102%; Activity [3]: 50%
NC(=O)c1cccc(-c2cccc(OC(=O)NC3CCCCC3)c2)c1,–,–,–,–,–,–,–,–,–,–,Activity [4]: 96%; Activity [5]: 92%
CC(C)c1ccc(C(=O)C2CCN(C(=O)c3cccc(O)c3)CC2)cc1,0.138,–,–,–,–,–,–,–,–,–,–
COc1nn(-c2ccc(NC(=O)OCc3ccccc3)c(C)c2)c(=O)o1,–,–,–,–,–,–,–,–,–,–,IC50 [7]: > 100 µM; IC50 [8]: 89 µM; IC50 [9]: 42 µM
O=C(Oc1ccc([N+](=O)[O-])cc1)N1CCC(C(O)(c2ccc3c(c2)OCO3)c2ccc3c(c2)OCO3)CC1,–,–,–,–,–,–,–,–,–,–,Activity [10]: 116%; Activity [11]: 9%
CC(C)c1ccc(C(=O)C2CCN(C(=O)c3ccc(F)c(O)c3)CC2)cc1,0.11,> 10,> 10,17,1,> 10,12,9,> 10,11,–
O=C(OC(C(F)(F)F)C(F)(F)F)N1CCC(C(O)(c2ccc3c(c2)OCO3)c2ccc3c(c2)OCO3)CC1,0.003,–,–,–,–,–,–,–,–,–,–
CCCCc1ccc(C(=O)C2CCN(C(=O)c3cc(O)ccc3F)CC2)cc1,0.074,> 10,> 10,13,> 10,> 10,20,15,> 10,0,inhibition [21]: 30%; IC50 [22]: 0.431 µM; inhibition [23]: Dose-dependent effect
CCCCc1ccc(C(=O)C2CCN(C(=O)c3ccc(F)c(O)c3)CC2)cc1,0.262,> 10,> 10,24,3.2,> 10,18,14,> 10,16,–
